In US5653961A, “Butixocort aerosol formulations in hydrofluorocarbon propellant” (Minnesota Mining and Manufacturing Company, priority 1995, dated 1997):
≈ marks a conversion by molar mass, not a printed value.

Assay: Solubility of butixocort propionate in propellants and propellant/ethanol blends
Type: physicochemical
Protocol: Solubility of butixocort propionate in P134a, P227, and blends thereof with ethanol, was determined as follows: Drug and the selected propellant system were combined and agitated for a period of seven days at a selected temperature to afford a saturated solution. The solid was filtered off and the supernatant was weighed. The propellant was removed by evaporation and the drug was reconstituted quantitatively. The concentration of the drug in the reconstituted solution was determined and from this the mount and concentration of drug dissolved in the propellant system was calculated. TABLES 1 and 2 show the average of three independent determinations.

CCCC(=O)O[C@]1(C(=O)CSC(=O)CC)CC[C@H]2[C@@H]3CCC4=CC(=O)CC[C@]4(C)[C@H]3[C@@H](O)C[C@@]21C [Butixocort propionate, 11-beta-hydroxypregn-4-ene-3,20-dione-21-thiopropionate-17-butyrate]
solubility in HFA 134a (HFA 134a, 20° C.): about 0.02 % by weight | solubility in HFA 227 (HFA 227, 20° C.): about 0.03 % by weight | solubility at 168 h (propellant 134a, 0% ethanol, organic solvent or mixture, 0 weight % ethanol, 20°C, Table 2, average of three determinations): 300 µg/mL (≈ 594 µM) | solubility at 168 h (propellant 134a, 1% ethanol, organic solvent or mixture, 1 weight % ethanol, 20°C, Table 2): 751 µg/mL (≈ 1490 µM) | solubility at 168 h (propellant 134a, 2.5% ethanol, organic solvent or mixture, 2.5 weight % ethanol, 20°C, Table 2): 1760 µg/mL (≈ 3480 µM) | solubility at 168 h (propellant 134a, 5% ethanol, organic solvent or mixture, 5 weight % ethanol, 20°C, Table 2): 4180 µg/mL (≈ 8280 µM) | solubility at 168 h (propellant 134a, 7.5% ethanol, organic solvent or mixture, 7.5 weight % ethanol, 20°C, Table 2): 6960 µg/mL (≈ 13800 µM) | solubility at 168 h (propellant 134a, 10% ethanol, organic solvent or mixture, 10 weight % ethanol, 20°C, Table 2): 9630 µg/mL (≈ 19100 µM) | solubility at 168 h (propellant 134a, organic solvent or mixture, 4 °C, Table 1, average of three determinations): 103 µg/mL (≈ 204 µM) | solubility at 168 h (propellant 134a, organic solvent or mixture, 20 °C, Table 1, average of three determinations): 203 µg/mL (≈ 402 µM) | solubility at 168 h (propellant 134a, organic solvent or mixture, 30 °C, Table 1, average of three determinations): 300 µg/mL (≈ 594 µM) | solubility at 168 h (propellant 134a, organic solvent or mixture, 40 °C, Table 1, average of three determinations): 319 µg/mL (≈ 632 µM) | solubility at 168 h (propellant 227, 0% ethanol, organic solvent or mixture, Propellant 227, 0 weight % ethanol, 20°C, Table 2, average of three determinations): 395 µg/mL (≈ 783 µM) | solubility at 168 h (propellant 227, 1% ethanol, organic solvent or mixture, Propellant 227, 1 weight % ethanol, 20°C, Table 2): 971 µg/mL (≈ 1920 µM) | solubility at 168 h (propellant 227, 2.5% ethanol, organic solvent or mixture, Propellant 227, 2.5 weight % ethanol, 20°C, Table 2): 1110 µg/mL (≈ 2210 µM) | solubility at 168 h (propellant 227, 5% ethanol, organic solvent or mixture, Propellant 227, 5 weight % ethanol, 20°C, Table 2): 3850 µg/mL (≈ 7630 µM) | solubility at 168 h (propellant 227, 7.5% ethanol, organic solvent or mixture, Propellant 227, 7.5 weight % ethanol, 20°C, Table 2): 6200 µg/mL (≈ 12300 µM) | solubility at 168 h (propellant 227, 10% ethanol, organic solvent or mixture, Propellant 227, 10 weight % ethanol, 20°C, Table 2): 8520 µg/mL (≈ 16900 µM) | solubility at 168 h (propellant 227, organic solvent or mixture, Propellant 227, 4 °C, Table 1, average of three determinations): 261 µg/mL (≈ 517 µM) | solubility at 168 h (propellant 227, organic solvent or mixture, Propellant 227, 20 °C, Table 1, average of three determinations): 285 µg/mL (≈ 565 µM) | solubility at 168 h (propellant 227, organic solvent or mixture, Propellant 227, 30 °C, Table 1, average of three determinations): 306 µg/mL (≈ 606 µM) | solubility at 168 h (propellant 227, organic solvent or mixture, Propellant 227, 40 °C, Table 1, average of three determinations): 317 µg/mL (≈ 628 µM)
